In US9796710B2, “Dihydropyrrolopyridine inhibitors of ROR-gamma” (Vitae Pharmaceuticals, Inc., priority 2014, dated 2017):
Like-named read-outs stand apart in the source and are kept apart here.

What was measured:
[1] = molecular target: full-length RORγt in Jurkat cells (Homo sapiens (Human), UniProt P51449)
Protocol: ROR ? t 5×RORE Assay in Jurkat Cells (Assay 2)
Compounds of the present invention were tested for ROR ? inverse agonist activity in a cell-based, transcriptional activity assay. […] Luciferase activity in the conditioned supernatants was determined with NanoGlo® assay reagents (Promega, Cat.# N1130).

[2] = molecular target: recombinant RORγ Ligand Binding Domain (LBD) protein (Homo sapiens (Human), UniProt P51449); assay: Radio-Ligand RORγ Binding Assay (Assay 1); conditions: read-out: RORγ Binding Ki Range* (nM) (Assay 1)
Sequence of recombinant RORγ Ligand Binding Domain (LBD) protein (P51449 269-508): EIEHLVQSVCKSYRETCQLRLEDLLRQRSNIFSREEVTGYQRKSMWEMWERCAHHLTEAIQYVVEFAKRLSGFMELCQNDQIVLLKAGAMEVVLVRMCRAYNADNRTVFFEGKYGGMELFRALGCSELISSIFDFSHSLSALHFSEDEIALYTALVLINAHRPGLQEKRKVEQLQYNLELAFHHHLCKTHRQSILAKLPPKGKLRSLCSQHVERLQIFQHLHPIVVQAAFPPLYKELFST
Protocol: Radio-Ligand ROR ? Binding Assay (Assay 1)
The plate was shaken at 700 rpm for 20 min and incubated for 10 min at rt, after which 40 μL of poly-Lys YSi SPA beads (PerkinElmer, Cat. # RPNQ0010) were added to achieve 50 μg of the beads per well. The plate was incubated on an orbital shaker for 20 min and then for 10 min without agitation at rt. SPA signal for tritium beta radiation was registered on PerkinElmer Microbeta plate reader. […] The percent inhibition vs. concentration data were fit into a four-parameter model, and IC50 values were calculated from the fit as the concentrations corresponding to the inflection points on the dose-response curves.

[3] = molecular target: hERG potassium ion channel (Homo sapiens (Human), UniProt Q12809); assay: hERG Assay (Assay 4); assay type: cell-based; conditions: HEK293 cells stably transfected with hERG cDNA, pH 7.4, Compound at 3 μM, patch clamp, HEK 293 cells
Sequence of hERG potassium ion channel (Q12809 whole entry): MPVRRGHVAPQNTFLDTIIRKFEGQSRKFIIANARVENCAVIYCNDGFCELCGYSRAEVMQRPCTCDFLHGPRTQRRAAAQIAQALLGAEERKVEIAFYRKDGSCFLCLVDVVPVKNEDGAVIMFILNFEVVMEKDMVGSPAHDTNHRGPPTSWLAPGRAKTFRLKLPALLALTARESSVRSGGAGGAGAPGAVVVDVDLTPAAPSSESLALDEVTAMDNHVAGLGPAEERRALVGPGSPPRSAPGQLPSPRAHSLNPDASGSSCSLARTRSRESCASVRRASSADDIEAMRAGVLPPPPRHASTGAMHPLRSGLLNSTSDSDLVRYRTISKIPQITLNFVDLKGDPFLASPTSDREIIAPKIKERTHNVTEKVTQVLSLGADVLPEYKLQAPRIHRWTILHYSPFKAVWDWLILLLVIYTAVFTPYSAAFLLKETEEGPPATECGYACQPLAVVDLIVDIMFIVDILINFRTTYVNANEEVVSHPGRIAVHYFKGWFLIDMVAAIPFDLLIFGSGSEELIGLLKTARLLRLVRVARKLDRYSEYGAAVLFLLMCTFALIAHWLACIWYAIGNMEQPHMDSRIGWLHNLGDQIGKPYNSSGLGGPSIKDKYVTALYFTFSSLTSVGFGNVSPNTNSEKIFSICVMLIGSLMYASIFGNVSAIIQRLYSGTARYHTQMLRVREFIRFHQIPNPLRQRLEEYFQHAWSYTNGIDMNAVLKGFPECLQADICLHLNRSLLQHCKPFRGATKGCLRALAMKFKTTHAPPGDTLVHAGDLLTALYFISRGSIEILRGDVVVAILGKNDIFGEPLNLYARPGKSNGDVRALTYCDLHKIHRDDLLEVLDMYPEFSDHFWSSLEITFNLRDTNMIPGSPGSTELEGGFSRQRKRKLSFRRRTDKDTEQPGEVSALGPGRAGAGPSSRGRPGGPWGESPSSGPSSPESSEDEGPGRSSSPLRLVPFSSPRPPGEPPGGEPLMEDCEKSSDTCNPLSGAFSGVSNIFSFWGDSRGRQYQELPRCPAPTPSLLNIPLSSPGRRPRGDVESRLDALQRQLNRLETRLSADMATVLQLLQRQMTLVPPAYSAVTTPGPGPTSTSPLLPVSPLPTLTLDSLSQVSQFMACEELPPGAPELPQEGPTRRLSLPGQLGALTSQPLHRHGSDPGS
Protocol: Compounds of the invention were tested in vitro against the hERG (human ether-a-go-go-related gene) potassium ion channel (a surrogate for IKr, the rapidly activating delayed rectifier cardiac potassium ion channel).
The buffer was HEPES-buffered physiological saline (HB-PS) solution composed of: 137 mM NaCl, 4.0 mM KCl, 1.8 mM CaCl2, 1 mM MgCl2, 10 mM HEPES, 10 mM glucose, pH adjusted to 7.4 with NaOH, and 0.3% DMSO. Chemicals used in solution preparation were purchased from Sigma-Aldrich (St. Louis, Mo.), unless otherwise noted, and were of ACS reagent grade purity or higher.
HEK (human embryonic kidney) 293 cells were stably transfected with hERG cDNA.
For the patch clamp experiment, onset and steady state inhibition of hERG potassium current was measured using a pulse pattern with fixed amplitudes (depolarization: +20 mV for 2 s; repolarization: −50 mV for 2 s) repeated at 10 s intervals from a holding potential of −80 mV. Peak tail current was measured during the 2 s step to −50 mV. A steady state was maintained for at least 30 seconds before applying compound or positive control (cisapride). Peak tail currents were measured until a new steady state was achieved.
Data acquisition and analyses were performed using the suite of pCLAMP® (ver. 8.2) programs (MDS Analytical Technologies, Sunnyvale, Calif.). Steady state was defined by the limiting constant rate of change with time (linear time dependence). The steady state before and after each compound application was used to calculate the percentage of current inhibited at each concentration. Concentration-response data were fit to an equation of the following form: % Inhibition={1−1/[1+([Test]/IC50)N]}*100
where [Test] was the compound concentration, IC50 was the compound concentration at half-maximal inhibition, N was the Hill coefficient, and % Inhibition was the percentage of current inhibited at each compound concentration. Nonlinear least squares fits were solved with the Solver add-in for Excel 2003 (Microsoft, WA) and the IC50 was calculated.

IL-17A production = assay: Human Whole Blood Assay (Assay 3); assay type: cell-based; conditions: IL-17A secretion, CytoStim, 48 h, 50% blood/media
Protocol: Human Whole Blood Assay (Assay 3)
Compounds of the invention were tested in the human whole blood assay to measure their effects on IL-17A production as determined by cytokine secretion into 50% blood/media supernatant. Mixtures of sodium heparinized whole blood (isolated from healthy human donors) and the T cell activator CytoStim, in the presence or absence of compound, were plated in sterilized, tissue culture-treated 24-well plates. Specifically, the mixtures in each well were as follows: (1) 500 μL of whole blood, (2) 250 μL of compound diluted into RPMI-1640 media containing 10% HyClone™ FCS (Thermo Fisher Scientific, Waltham, Mass.), Gibco® Pen/Strep and Gibco® NEAA (Life Technologies, Grand Island, N.Y.), and (3) 250 μL of CytoStim (Miltenyi Biotech, Germany) diluted to a final concentration of 10 μL/mL in complete cell culture medium.
IL-17A cytokine expression was determined using 25 μL of the transferred supernatant diluted with 25 μL of Diluent 43 from the Human IL-17A V-PLEX™ kit (cat. # K151RFD-4, Meso Scale Discovery, Rockville, Md.). The assay was performed according to the manufacturer's instructions using included reagents. The IL-17A V-PLEX™ plates were read using the Meso Scale Discovery Imager (Model 1200).

[4] = cell-free competition with 25-hydroxy [26,27-3H]-cholesterol

Sequence of full-length RORγt in Jurkat cells (P51449 other isoform, or with tags, fused parts or gaps): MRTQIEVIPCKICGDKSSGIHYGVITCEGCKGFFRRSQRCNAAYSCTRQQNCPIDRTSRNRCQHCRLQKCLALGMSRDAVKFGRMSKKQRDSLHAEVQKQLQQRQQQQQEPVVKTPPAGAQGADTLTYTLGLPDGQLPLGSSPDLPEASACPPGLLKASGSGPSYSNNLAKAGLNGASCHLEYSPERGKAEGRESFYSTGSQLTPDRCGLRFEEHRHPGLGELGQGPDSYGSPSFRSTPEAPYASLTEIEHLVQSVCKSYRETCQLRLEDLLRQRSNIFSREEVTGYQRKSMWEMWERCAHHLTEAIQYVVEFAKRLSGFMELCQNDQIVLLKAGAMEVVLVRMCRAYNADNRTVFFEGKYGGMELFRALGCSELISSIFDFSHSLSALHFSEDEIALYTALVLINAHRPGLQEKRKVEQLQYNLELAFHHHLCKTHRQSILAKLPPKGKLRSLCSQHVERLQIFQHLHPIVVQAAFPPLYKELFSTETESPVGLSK

SMILES	IC50 [1]	Ki [2, 4]	further results
CC[C@H]1c2ncc(C(=O)N[C@@H](CO)c3ccc(S(=O)(=O)CC)cc3)cc2CN1C[C@H]1CC[C@H](C(F)(F)F)OC1 (single isomer, unassigned) [Compound 10]	< 100 nM	< 100 nM	
CC[C@H]1c2ncc(C(=O)N[C@@H](CO)c3ccc(S(=O)(=O)CC)cc3)cc2CN1C[C@@H]1CC[C@@H](C(F)(F)F)OC1 (single isomer, unassigned) [Compound 11]	< 100 nM	< 100 nM	
CCS(=O)(=O)c1ccc([C@H](CO)NC(=O)c2cnc3c(c2)CN(C[C@H]2CC[C@H](C(F)(F)F)CO2)[C@H]3C(C)C)cc1 (single isomer, unassigned) [Compound 15]	< 100 nM	< 100 nM	
CCS(=O)(=O)c1ccc([C@H](CO)NC(=O)c2cnc3c(c2)CN(C[C@@H]2CC[C@H](C(F)(F)F)CO2)[C@H]3C(C)C)cc1 (single isomer, unassigned) [Compound 18]	> 1000 nM	< 100 nM	
CCS(=O)(=O)c1ccc([C@H](CO)NC(=O)c2cnc3c(c2)CN(C[C@H]2CC[C@@H](C(F)(F)F)CO2)[C@H]3C(C)C)cc1 (single isomer, unassigned) [Compound 21]	> 1000 nM	< 100 nM	
CCS(=O)(=O)c1ccc([C@H](CO)NC(=O)c2cnc3c(c2)CN(C)[C@@H]3Cc2ccccc2)cc1 (single isomer, unassigned) [Compound 34]		100 to 1000 nM	
CCS(=O)(=O)c1ccc([C@H](NC(=O)c2cnc3c(c2)CN(C[C@H]2CC[C@H](C(F)(F)F)CC2)[C@H]3C(C)C)[C@H](C)O)cc1 (single isomer, unassigned) [Compound 39]	< 100 nM	< 100 nM	inhibition at 3 µM [3]: 32.7%
CCS(=O)(=O)c1ccc([C@@H](NC(=O)c2cnc3c(c2)CN(C[C@H]2CC[C@H](C(F)(F)F)CC2)[C@H]3C(C)C)[C@@H](C)O)cc1 (single isomer, unassigned) [Compound 42]	< 100 nM	< 100 nM	inhibition at 3 µM [3]: 63.9%
CCS(=O)(=O)c1ccc([C@H](CO)NC(=O)c2cnc3c(c2)CN(C[C@@H]2CC[C@@H](C(F)(F)F)OC2)[C@H]3C(C)C)nc1 [Compound 1]	< 100 nM	< 100 nM	IC50 (IL-17A production): < 100 nM
CCS(=O)(=O)c1ccc([C@H](CO)NC(=O)c2cnc3c(c2)CN(C[C@@H]2CC[C@@H](C(F)(F)F)OC2)[C@H]3C(C)C)cc1 [Compound 2]	< 100 nM	< 100 nM	
CCS(=O)(=O)c1ccc([C@H](CO)NC(=O)c2cnc3c(c2)CN(C[C@H]2CC[C@H](C(F)(F)F)OC2)[C@H]3C(C)C)nc1 [Compound 4]	< 100 nM		IC50 (IL-17A production): < 100 nM; Ki [2]: < 100 nM
CCS(=O)(=O)c1ccc(C(C)(CO)NC(=O)c2cnc3c(c2)CN(C[C@H]2CC[C@H](C(F)(F)F)CC2)[C@H]3C(C)C)cc1 (some centres unmarked) [Compound 7]		< 100 nM	
CCS(=O)(=O)c1ccc([C@H](CO)NC(=O)c2cnc3c(c2)CN(C[C@@H]2CC[C@@H](C(F)(F)F)CO2)[C@H]3C(C)C)cc1 [Compound 14]	< 100 nM	< 100 nM	
CCS(=O)(=O)c1ccc([C@H](CO)NC(=O)c2cnc3c(c2)CN(CC(F)(F)F)[C@@H]3Cc2ccccc2)cc1 [Compound 19]		< 100 nM	
CCS(=O)(=O)c1ccc([C@H](CO)NC(=O)c2cnc3c(c2)CN(CC(F)(F)F)[C@H]3Cc2ccccc2)cc1 [Compound 22]		< 100 nM	
CCS(=O)(=O)c1ccc([C@H](CO)NC(=O)c2cnc3c(c2)CN(C[C@H]2CC[C@H](C(F)(F)F)CC2)C3C(F)(F)F)cc1 (some centres unmarked) [Compound 23]		< 100 nM	
CC[C@H]1c2ncc(C(=O)N[C@@H](CO)c3ccc(S(C)(=O)=O)cc3)cc2CN1C[C@H]1CC[C@H](C(F)(F)F)CC1 [Compound 24]	< 100 nM	< 100 nM	
CCS(=O)(=O)c1ccc([C@H](CO)NC(=O)c2cnc3c(c2)CN(C[C@H]2CC[C@H](C(F)(F)F)CC2)[C@H]3C)cc1 [Compound 26]		< 100 nM	
CCS(=O)(=O)c1ccc([C@H](CO)NC(=O)c2cnc3c(c2)CN(C[C@H]2CC[C@H](C(F)(F)F)CC2)[C@H]3CC2CCOCC2)cc1 [Compound 27]		< 100 nM	
CCS(=O)(=O)c1ccc([C@H](CO)NC(=O)c2cnc3c(c2)CN(C[C@H]2CC[C@H](C(F)(F)F)CC2)[C@@H]3C)cc1 [Compound 28]		> 1000 nM	
CCS(=O)(=O)c1ccc([C@@H](NC(=O)c2cnc3c(c2)CN(C[C@H]2CC[C@H](C(F)(F)F)CC2)[C@H]3C(C)C)[C@@H](C)O)cc1 [Compound 29]		100 to 1000 nM	
CCS(=O)(=O)c1ccc([C@@H](NC(=O)c2cnc3c(c2)CN(C[C@H]2CC[C@H](C(F)(F)F)CC2)[C@H]3C(C)C)[C@@H](C)O)cc1 [Compound 30]		100 to 1000 nM	
CCS(=O)(=O)c1ccc([C@H](CO)NC(=O)c2cnc3c(c2)CN(C[C@H]2CC[C@H](C(F)(F)F)CC2)[C@H]3C2CCOCC2)cc1 [Compound 31]		< 100 nM	
CC[C@H]1c2ncc(C(=O)N[C@@H](CO)c3ccc(S(=O)(=O)CC)cn3)cc2CN1C[C@H]1CC[C@H](C(F)(F)F)CC1 [Compound 33]			inhibition at 3 µM [3]: 29.1%
CCS(=O)(=O)c1ccc([C@H](CO)NC(=O)c2cnc3c(c2)CN(C[C@H]2CC[C@H](C(F)(F)F)CC2)[C@H]3Cc2ccccc2)cc1 [Compound 37]		< 100 nM	
CC[C@H]1c2ncc(C(=O)N[C@@H](CO)c3ccc(S(=O)(=O)CC)cc3)cc2CN1C[C@H]1CC[C@H](C(F)(F)F)CC1 [Compound 41, (S)-7-ethyl-N—((R)-1-(4-(ethylsulfonyl)phenyl)-2-hydroxyethyl)-6-((trans-4-(trifluoromethyl)cyclohexyl)methyl)-6,7-dihydro-5H-pyrrolo[3,4-b]pyridine-3-carboxamide]			inhibition at 3 µM [3]: 7.7%
CCO[C@H]1CC[C@H](CN2Cc3cc(C(=O)N[C@@H](CO)c4ccc(S(=O)(=O)CC)cc4)cnc3[C@@H]2C(C)C)CC1 [Compound 43]		< 100 nM	
CCS(=O)(=O)c1ccc([C@@H](CO)NC(=O)c2cnc3c(c2)CN(C[C@H]2CC[C@H](C(F)(F)F)CC2)[C@H]3C(C)C)nc1 [Compound 44]			inhibition at 3 µM [3]: 28.6%
CCS(=O)(=O)c1ccc([C@H](CO)NC(=O)c2cnc3c(c2)CN(C[C@H]2CC[C@H](C(F)(F)F)CC2)[C@H]3C(C)C)cc1 [Compound 46, (S)—N—((R)-1-(4-(ethylsulfonyl)phenyl)-2-hydroxyethyl)-7-isopropyl-6-((trans-4-(trifluoromethyl)cyclohexyl)methyl)-6,7-dihydro-5H-pyrrolo[3,4-b]pyridine-3-carboxamide]		< 100 nM	inhibition at 3 µM [3]: 44.3%
CCS(=O)(=O)c1ccc([C@@H](CO)NC(=O)c2cnc3c(c2)CN(C[C@H]2CC[C@H](C(F)(F)F)CC2)[C@H]3C(C)C)cc1 [Compound 47]		< 100 nM	
